Data reported in patent US20260199305A1, “LONG-ACTING ORAL PHARMACEUTICAL COMPRISING HYPOXIA-INDUCIBLE FACTOR PROLYL HYDROLASE INHIBITOR AND USE THEREOF” (Kind Pharmaceutical, priority 2023, published 2026).

Test system: Normal Rats
Test: Hemoglobin increase in normal rats, oral tiw vs qw for 4 weeks
Assay type: in vivo, SD rats
Design: Hemoglobin D0 / Hemoglobin D14: unit not given here
Details: for Hemoglobin D0 / Hemoglobin D7 / Hemoglobin D14 / Hemoglobin D21 / Hemoglobin D28: oral; for Hemoglobin D0: day 0; for Hemoglobin D7: day 7; for Hemoglobin D14: day 14; for Hemoglobin D21: day 21; for Hemoglobin D28: day 28
Method: A total of 70 male SD rats, approximately 7 weeks old, were acclimated to the experimental environment for 10 days before the start of the experiment. Throughout the experiment, animals were housed in cages (5 rats per cage) in a conventional animal room with 24-hour continuous central air conditioning, temperature set at 24° C., and a 12-hour light/dark cycle. All rats had free access to food (dry pelleted food) and purified drinking water. The animals were randomly divided into 8 groups: the vehicle tiw group and vehicle qw group each contained 5 rats; Comp-1 3 mpk tiw, 6 mpk tiw, 10 mpk tiw, 9 mpk qw, 18 mpk qw, and 30 mpk qw, each contained 10 rats (mpk=mg/kg). The vehicle was 1 M aqueous meglumine solution. Each rat received oral gavage of the vehicle or the corresponding weight of Comp-1 vehicle solution according to its body weight and group assignment (tiw, qw) for a total of 4 weeks. Blood samples were collected from each rat on days 0, 7, 14, 21, and 28 to measure hemoglobin values (HGB, Hb). After tail snip blood collection, hemoglobin values were measured and read using a hemoglobin detector (HemoCue Hb 201+, produced by Radiometer). Quantitative data results were analyzed statistically using one-way analysis of variance (ANOVA) between groups, followed by Dunnett's multiple comparison method. Two-tailed analysis was used for statistics, and the statistical significance level was set at P<0.05.

## O=C(O)CNC(=O)C1=C(O)C2(CCCC2)n2c(ccc2-c2ccccc2)C1=O [Comp-1, (6′-hydroxy-8′-oxo-3′-phenyl-8′H-spiro[cyclopentane-1,5′-indolizine]-7′-carbonyl)glycine]
3 mg/kg, tiw
  Hemoglobin D0: 16.42 ± 0.74
  Hemoglobin D7: 18.32 ± 0.70
  Hemoglobin D14: 19.06 ± 0.81
  Hemoglobin D21: 18.09 ± 0.57
  Hemoglobin D28: 18.97 ± 0.56
6 mg/kg, tiw
  Hemoglobin D0: 17.4 ± 1.07
  Hemoglobin D7: 18.76 ± 0.76
  Hemoglobin D14: 20.15 ± 0.58
  Hemoglobin D21: 19.49 ± 0.82
  Hemoglobin D28: 21.26 ± 1.08
9 mg/kg, qw
  Hemoglobin D0: 16.96 ± 0.82
  Hemoglobin D7: 17.57 ± 1.07
  Hemoglobin D14: 17.77 ± 2.01
  Hemoglobin D21: 17.73 ± 1.15
  Hemoglobin D28: 19.09 ± 1.44
10 mg/kg, tiw
  Hemoglobin D0: 17.74 ± 1.06
  Hemoglobin D7: 19.21 ± 0.71
  Hemoglobin D14: 21.83 ± 1.18
  Hemoglobin D21: 22.12 ± 1.40
  Hemoglobin D28: 23.69 ± 1.31
18 mg/kg, qw
  Hemoglobin D0: 17.2 ± 1.00
  Hemoglobin D7: 17.95 ± 0.88
  Hemoglobin D14: 18.57 ± 0.76
  Hemoglobin D28: 18.99 ± 1.23
18 mg/kg, qw, in g/dL
  Hemoglobin D21: 18.72 ± 0.92
30 mg/kg, qw
  Hemoglobin D0: 17.13 ± 1.17
  Hemoglobin D14: 19.44 ± 1.07
30 mg/kg, qw, in g/dL
  Hemoglobin D7: 19.33 ± 0.56
  Hemoglobin D21: 20.04 ± 0.93
  Hemoglobin D28: 20.62 ± 0.76
Day 28, the three once weekly (qw) groups
  hemoglobin levels compared with vehicle once weekly (qw): statistically significantly increased
